Measured values published in patent US20230192717A1, “COMPOSITIONS AND METHODS OF MODULATING SHORT-CHAIN DEHYDROGENASE ACTIVITY” (RODEO THERAPEUTICS CORPORATION, priority 2020, published 2023).
In brackets after ≈: the same amount, converted by molar mass.

Key:
recombinant 15-PGDH = target: T1, recombinant 15-PGDH (Homo sapiens, UniProt P15428); assay: inhibition of enzymatic activity of recombinant 15-PGDH in vitro; format: biochemical; settings: recombinant human 15-PGDH
T1 sequence (P15428 1-266): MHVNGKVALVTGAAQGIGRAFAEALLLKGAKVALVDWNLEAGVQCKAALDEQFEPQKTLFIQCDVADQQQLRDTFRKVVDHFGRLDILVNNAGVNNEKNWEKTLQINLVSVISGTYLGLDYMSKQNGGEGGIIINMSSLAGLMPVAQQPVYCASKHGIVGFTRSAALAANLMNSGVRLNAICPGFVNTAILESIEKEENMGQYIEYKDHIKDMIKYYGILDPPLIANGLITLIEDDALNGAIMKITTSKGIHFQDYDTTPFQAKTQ
Description: The Recombinant 15-PGDH is human unless otherwise specified.

[1] = kinetic aqueous solubility in pH 7 citrate buffer; format: physicochemical; settings: kinetic from dmso stock, pH 7 citrate buffer solution, read-out: Kinetic Aq solubility (μM pH 7)
hERG channels = hERG channels (Homo sapiens, UniProt Q12809); assay: hERG test on manual patch-clamp system; format: cell-based; settings: CHO-K1 cells expressing hERG, whole-cell patch clamp, room temperature
Chain of hERG channels (Q12809 whole entry): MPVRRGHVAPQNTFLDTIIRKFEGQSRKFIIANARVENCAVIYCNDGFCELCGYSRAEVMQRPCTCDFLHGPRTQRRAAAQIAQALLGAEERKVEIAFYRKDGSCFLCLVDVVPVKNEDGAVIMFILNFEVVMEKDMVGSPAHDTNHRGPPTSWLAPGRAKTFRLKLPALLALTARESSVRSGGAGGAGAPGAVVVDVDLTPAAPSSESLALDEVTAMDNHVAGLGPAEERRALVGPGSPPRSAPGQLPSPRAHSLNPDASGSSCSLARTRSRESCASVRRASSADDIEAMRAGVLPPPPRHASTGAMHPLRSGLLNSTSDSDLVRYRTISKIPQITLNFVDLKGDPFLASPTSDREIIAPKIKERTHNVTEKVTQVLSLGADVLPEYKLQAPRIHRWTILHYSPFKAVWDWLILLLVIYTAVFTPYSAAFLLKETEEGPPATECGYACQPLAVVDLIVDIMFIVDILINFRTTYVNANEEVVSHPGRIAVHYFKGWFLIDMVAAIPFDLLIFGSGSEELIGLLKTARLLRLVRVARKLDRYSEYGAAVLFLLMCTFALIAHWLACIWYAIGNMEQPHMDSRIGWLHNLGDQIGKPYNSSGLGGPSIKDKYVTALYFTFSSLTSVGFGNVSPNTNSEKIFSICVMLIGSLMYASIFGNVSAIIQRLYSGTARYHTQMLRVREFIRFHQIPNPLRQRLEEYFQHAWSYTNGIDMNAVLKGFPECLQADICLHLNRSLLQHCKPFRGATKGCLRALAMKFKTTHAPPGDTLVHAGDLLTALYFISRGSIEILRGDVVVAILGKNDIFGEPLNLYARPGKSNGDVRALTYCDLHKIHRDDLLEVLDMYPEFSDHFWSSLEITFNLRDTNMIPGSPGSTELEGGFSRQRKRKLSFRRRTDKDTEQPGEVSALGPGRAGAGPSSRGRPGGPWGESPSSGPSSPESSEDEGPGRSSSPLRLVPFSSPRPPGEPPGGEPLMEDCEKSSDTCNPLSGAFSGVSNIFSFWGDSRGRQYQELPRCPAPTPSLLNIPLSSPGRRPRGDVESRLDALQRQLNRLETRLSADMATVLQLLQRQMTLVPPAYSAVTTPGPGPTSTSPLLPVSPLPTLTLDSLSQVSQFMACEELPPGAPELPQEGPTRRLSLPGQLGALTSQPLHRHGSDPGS
Method: Visual check for precipitation was conducted before testing.

[2] = in vitro microsome metabolic stability, human (HLM); format: in vitro ADME; settings: pooled human liver microsomes, pH 7.4; human liver microsomes 0.5 mg/mL, 1 μM compound, NADPH, 37° C.; read-out: HLM (T1/2, min)
Method: (§1) Human microsome stability (HLM), mouse microsome stability (MLM), hERG IC50, Caco-2 permeability, CYP inhibition, and pharmacokinetic (PK) properties were determined on selected compounds of the disclosure.
(§2) Pooled liver microsomes (Human and CD-1 mouse) were purchased from Corning or XenoTech LLC and stored at −80° C. freezer before use. NADPH cofactor system—β-Nicotinamide adenine dinucleotide phosphate reduced form, tetrasodium salt, NADPH·4Na(NADPH) (Vendor: Chem-impex international, Cat.No. 00616) was used. Control compounds were Testosterone, Diclofenac, Propafenone.
(§3) Stock solution—Test compound was 10 mM in DMSO (Dimethyl Sulfoxide).
(§4) Working solution—Dilute 5 μL of compound or control from stock solution (10 mM) with 495 μL 100% Acetonitrile (Conc.: 100 μM, 99% ACN, 1% DMSO; final concentration in reaction system: 1 μM, 0.99% ACN, 0.01% DMSO).
(§5) Potassium Phosphate Buffer 100 mM (pH 7.4±0.1)
(§6) NADPH Cofactor: The appropriate amount of NADPH powder was weighed, and diluted into MgCl2 solution (work solution concentration: 10 mM NADPH and 10 mM MgCl2; final concentration in reaction system: 1 mM NADPH and 1 mM MgCl2).
(§7) Liver microsome preparation (0.5 mg/mL): Pipette appropriate volume of microsome (20 mg/mL) to 100 mM buffer solution (Conc.: 0.56 mg/mL, Final concentration in reaction system: 0.5 mg/mL).
(§8) Automatic Workstation was used for all liquid handling and incubation.

[3] = in vitro microsome metabolic stability, mouse (MLM); format: in vitro ADME; settings: pooled CD-1 mouse liver microsomes, pH 7.4; CD-1 mouse liver microsomes 0.5 mg/mL, 1 μM compound, NADPH, 37° C.; read-out: MLM (T1/2, min)
Method: as §1, §2, §3, §4, §5, §6, §7, §8

Caco-2 permeability test = format: in vitro ADME; settings: human, pH 7.4, Caco-2, 2.0 μM, A to B and B to A, pH 7.40, read-out: Caco summary: ER (efflux ratio)
Method: (§10) Caco-2 Cells (obtained from ATCC) were seeded onto PET membranes of 96-well Insert Plates and cultured for 21-28 days before being used in the transport assays. The integrity of the monolayer was verified by performing Lucifer yellow rejection assay. The quality of the monolayer was verified by measuring the unidirectional (A to B) permeability of nadolol (low permeability marker), metoprolol (high permeability marker) and bi-directional permeability of digoxin (a P-glycoprotein substrate marker) in duplicate wells. Nadolol and metoprolol were tested at 2.0 μM, and digoxin was tested at 10.0 μM. […]
(§11) Dosing solutions were removed and mixed with transport buffer and Stop Solution containing an appropriate internal standard (IS) as T0 samples. […] All samples including T0 samples, donor samples and receiver samples were analyzed using LC/MS/MS. Concentrations of test compounds were expressed as peak area ratio of analytes to IS without a standard curve.
(§12) The A to B and B to A apparent permeability coefficients (Papp), % Solution Recovery, and Efflux ratio (ER) were determined.

Caco-2 Cells = assay: Caco-2 permeability test; format: in vitro ADME; settings: Caco-2, 2.0 μM, 2 hours, pH 7.40
Method: as §10, §11, §12

CYP 1A2 = target: T2, CYP 1A2 (Homo sapiens, UniProt P05177); assay: microsomal CYP inhibition, 1A2; format: in vitro ADME; settings: human liver microsomes 0.2 mg/ml, substrate Phenacetin
T2 construct: pooled human liver microsomes (Corning, Xenotech, or other qualified vendors; pooled from multiple donors); tissue Corning, Xenotech, or other qualified vendors; host or cells: pooled human liver microsomes
T2 sequence (P05177 1-516): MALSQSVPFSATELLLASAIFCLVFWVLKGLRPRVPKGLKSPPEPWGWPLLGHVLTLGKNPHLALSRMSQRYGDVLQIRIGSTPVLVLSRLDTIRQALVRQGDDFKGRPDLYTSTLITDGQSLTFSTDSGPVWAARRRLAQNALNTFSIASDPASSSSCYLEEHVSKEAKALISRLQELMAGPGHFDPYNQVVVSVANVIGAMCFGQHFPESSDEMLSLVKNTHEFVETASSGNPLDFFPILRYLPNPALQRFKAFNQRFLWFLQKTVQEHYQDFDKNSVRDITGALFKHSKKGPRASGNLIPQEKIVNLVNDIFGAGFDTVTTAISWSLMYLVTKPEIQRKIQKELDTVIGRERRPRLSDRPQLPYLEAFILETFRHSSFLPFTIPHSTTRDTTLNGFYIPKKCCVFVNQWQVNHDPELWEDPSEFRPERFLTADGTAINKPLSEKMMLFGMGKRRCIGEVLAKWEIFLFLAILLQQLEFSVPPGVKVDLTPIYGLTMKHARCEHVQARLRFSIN
Method: (§9) CYP450 enzymatic activities was determined using 5in1 marker substrate cocktail. For each reaction, enzyme activities in the presence of the test compound at 8 concentrations (0, 0.05, 0.15, 0.5, 1.5, 5.0, 15.0, or 50.0 μM) were measured in singlet (n=1). A known inhibitor for each isoform, tested at a single concentration (3.0 μM) in duplicate (n=2), was included as positive control. Incubation mixture containing pooled human liver microsomes (Corning, Xenotech, or other qualified vendors; pooled from multiple donors) at 0.2 mg/ml, marker substrates and standard inhibitors (listed in the following table) or the test compound was warm up at 37° C. for 10 minutes. The reactions were initiated by the addition of the NADPH (1.0 mM). […] After the mixture was incubated at 37° C. for 10 minutes, ice cold acetonitrile containing the internal standard (IS) was added to terminate the reactions. The metabolites generated from the marker substrates were measured by LC-MS/MS and were assessed based on peak area ratios of the analyte to IS. The remaining activity (expressed as % of control activity) were calculated; IC50 values of the test compound were determined using SigmaPlot or XLfit with 3- or 4-parameter logistic sigmoidal equation.

CYP 2C9 = target: T3, CYP 2C9 (Homo sapiens, UniProt P11712); assay: microsomal CYP inhibition, 2C9; format: in vitro ADME; settings: human liver microsomes 0.2 mg/ml, substrate Diclofenac
T3 construct: pooled human liver microsomes (Corning, Xenotech, or other qualified vendors; pooled from multiple donors); tissue Corning, Xenotech, or other qualified vendors; host or cells: pooled human liver microsomes
T3 sequence (P11712 whole entry): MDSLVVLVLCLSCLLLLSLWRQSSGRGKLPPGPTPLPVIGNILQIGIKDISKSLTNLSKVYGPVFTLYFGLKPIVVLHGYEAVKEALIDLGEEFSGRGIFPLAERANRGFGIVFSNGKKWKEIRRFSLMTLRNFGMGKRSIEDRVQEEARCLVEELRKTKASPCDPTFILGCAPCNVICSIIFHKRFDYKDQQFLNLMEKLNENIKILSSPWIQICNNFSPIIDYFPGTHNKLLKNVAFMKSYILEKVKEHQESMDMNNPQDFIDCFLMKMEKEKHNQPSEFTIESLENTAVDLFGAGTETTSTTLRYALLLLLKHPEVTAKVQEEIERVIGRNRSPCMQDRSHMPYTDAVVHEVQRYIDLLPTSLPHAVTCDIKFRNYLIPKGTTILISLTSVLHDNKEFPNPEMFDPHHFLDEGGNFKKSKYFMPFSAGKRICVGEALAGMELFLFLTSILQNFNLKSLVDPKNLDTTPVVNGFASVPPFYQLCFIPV
Method: as §9

CYP 2C19 = target: T4, CYP 2C19 (Homo sapiens, UniProt P33261); assay: microsomal CYP inhibition, 2C19; format: in vitro ADME; settings: human liver microsomes 0.2 mg/ml, substrate S-Mephenytoin
T4 construct: pooled human liver microsomes (Corning, Xenotech, or other qualified vendors; pooled from multiple donors); tissue Corning, Xenotech, or other qualified vendors; host or cells: pooled human liver microsomes
T4 sequence (P33261 whole entry): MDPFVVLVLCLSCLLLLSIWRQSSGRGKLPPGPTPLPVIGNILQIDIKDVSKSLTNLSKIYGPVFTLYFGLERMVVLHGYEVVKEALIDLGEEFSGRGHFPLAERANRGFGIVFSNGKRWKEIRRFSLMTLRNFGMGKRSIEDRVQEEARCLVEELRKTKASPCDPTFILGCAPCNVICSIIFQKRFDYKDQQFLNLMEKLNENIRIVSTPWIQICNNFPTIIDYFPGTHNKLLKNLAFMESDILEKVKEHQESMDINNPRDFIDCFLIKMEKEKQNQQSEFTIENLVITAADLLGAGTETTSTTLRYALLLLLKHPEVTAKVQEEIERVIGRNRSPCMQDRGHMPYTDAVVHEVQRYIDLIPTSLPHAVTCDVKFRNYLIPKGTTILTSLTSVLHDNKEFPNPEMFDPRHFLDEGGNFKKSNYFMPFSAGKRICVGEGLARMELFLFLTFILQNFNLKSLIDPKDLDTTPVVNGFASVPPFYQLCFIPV
Method: as §9

CYP 2D6 = target: T5, CYP 2D6 (Homo sapiens, UniProt P10635); assay: microsomal CYP inhibition, 2D6; format: in vitro ADME; settings: human liver microsomes 0.2 mg/ml, substrate Dextromethorphan
T5 construct: pooled human liver microsomes (Corning, Xenotech, or other qualified vendors; pooled from multiple donors); tissue Corning, Xenotech, or other qualified vendors; host or cells: pooled human liver microsomes
T5 sequence (P10635 whole entry): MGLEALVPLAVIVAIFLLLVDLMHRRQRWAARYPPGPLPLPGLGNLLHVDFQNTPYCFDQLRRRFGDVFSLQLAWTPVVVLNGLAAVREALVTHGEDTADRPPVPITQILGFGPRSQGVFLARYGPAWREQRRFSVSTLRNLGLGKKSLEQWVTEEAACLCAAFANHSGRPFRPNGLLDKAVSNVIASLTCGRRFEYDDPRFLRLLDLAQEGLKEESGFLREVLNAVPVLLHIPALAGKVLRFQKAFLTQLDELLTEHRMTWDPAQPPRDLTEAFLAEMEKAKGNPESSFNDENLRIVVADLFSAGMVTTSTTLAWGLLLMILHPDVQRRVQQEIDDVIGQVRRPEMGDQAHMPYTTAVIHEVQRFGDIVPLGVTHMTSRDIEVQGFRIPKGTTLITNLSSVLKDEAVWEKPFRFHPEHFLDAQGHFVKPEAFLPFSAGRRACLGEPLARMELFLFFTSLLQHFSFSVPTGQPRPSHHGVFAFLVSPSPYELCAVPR
Method: as §9

CYP 3A4 = target: T6, CYP 3A4 (Homo sapiens, UniProt P08684); assay: microsomal CYP inhibition, 3A4; format: in vitro ADME; settings: human liver microsomes 0.2 mg/ml, substrate Midazolam; read-out: CYP inhibition (μM) 3A4 (3A4M)
T6 construct: pooled human liver microsomes (Corning, Xenotech, or other qualified vendors; pooled from multiple donors); tissue Corning, Xenotech, or other qualified vendors; host or cells: pooled human liver microsomes
T6 sequence (P08684 whole entry): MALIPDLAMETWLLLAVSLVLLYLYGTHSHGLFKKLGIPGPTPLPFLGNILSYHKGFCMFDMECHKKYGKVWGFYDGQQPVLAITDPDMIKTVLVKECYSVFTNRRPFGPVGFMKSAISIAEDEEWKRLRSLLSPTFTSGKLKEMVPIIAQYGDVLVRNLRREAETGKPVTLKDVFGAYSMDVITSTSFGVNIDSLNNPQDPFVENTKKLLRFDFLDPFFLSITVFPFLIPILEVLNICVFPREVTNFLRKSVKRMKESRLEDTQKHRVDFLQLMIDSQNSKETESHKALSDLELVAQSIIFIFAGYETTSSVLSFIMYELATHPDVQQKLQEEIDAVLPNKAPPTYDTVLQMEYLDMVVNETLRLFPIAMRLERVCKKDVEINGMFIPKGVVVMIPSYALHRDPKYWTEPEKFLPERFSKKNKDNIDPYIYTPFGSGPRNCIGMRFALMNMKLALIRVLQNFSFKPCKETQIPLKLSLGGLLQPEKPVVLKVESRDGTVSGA
Method: as §9

Compound: COCC[S@@+]([O-])c1sc2nc(-c3cnc4nn(C)cc4c3)c(C#N)c(-c3ccccc3)c2c1N [Compound 9, (R)-3-amino-2-((2-methoxyethyl)sulfinyl)-6-(2-methyl-2H-pyrazolo[3,4-b]pyridin-5-yl)-4-phenylthieno[2,3-b]pyridine-5-carbonitrile]
- IC50 (recombinant 15-PGDH): < 0.0025 µM
- solubility kinetic [1]: 169 µM (≈ 82.6 µg/mL)
- IC50 (hERG channels): 13 µM

Compound: COCC[S@@+]([O-])c1sc2nc(-c3cnc4nn(C)nc4c3)cc(C(C)(C)C)c2c1N [Compound 29, 4-tert-butyl-2-[(R)-2-methoxyethanesulfinyl]-6-{2-methyl-2H-[1,2,3]triazolo[4,5-b]pyridin-6-yl}thieno[2,3-b]pyridin-3-amine]
- IC50 (recombinant 15-PGDH): < 0.0025 µM
- solubility kinetic [1]: 188 µM (≈ 83.6 µg/mL)
- half-life at 1 μM [2]: 100 min
- half-life at 1 μM [3]: 86 min
- efflux ratio at 2 h, 2 μM (Caco-2 permeability test): 1
- Caco summary: permeability (high/low) (Caco-2 Cells): high
- IC50 (hERG channels): 11 µM
- IC50 (CYP 1A2): > 50 µM
- IC50 (CYP 2C9): 4 µM
- IC50 (CYP 2C19): 1 µM
- IC50 (CYP 2D6): 29 µM
- IC50 (CYP 3A4): 39 µM
